Measurements taken from patent US11117860B2, “Phenyl urea derivatives as n-formyl peptide receptor modulators” (Allergan, Inc., priority 2016, dated 2021).

Key:
FPR2 = biological target: T1, FPR2 (Homo sapiens, UniProt P25090); experiment: compound-induced calcium activity on FLIPR Tetra, CHO-Gα16 cells stably expressing FPR2; format: cell-based; design: FPR2 Ga16-CHO (% eff): unit not given here; conditions: for FPR2 Ga16-CHO (% eff): efficacy value in parentheses; for EC50: tested at 0.61 to 10,000 nM, read-out: FPR2 Ga16-CHO EC50
T1 construct: expressed in transfected cells
T1 sequence (P25090 1-351): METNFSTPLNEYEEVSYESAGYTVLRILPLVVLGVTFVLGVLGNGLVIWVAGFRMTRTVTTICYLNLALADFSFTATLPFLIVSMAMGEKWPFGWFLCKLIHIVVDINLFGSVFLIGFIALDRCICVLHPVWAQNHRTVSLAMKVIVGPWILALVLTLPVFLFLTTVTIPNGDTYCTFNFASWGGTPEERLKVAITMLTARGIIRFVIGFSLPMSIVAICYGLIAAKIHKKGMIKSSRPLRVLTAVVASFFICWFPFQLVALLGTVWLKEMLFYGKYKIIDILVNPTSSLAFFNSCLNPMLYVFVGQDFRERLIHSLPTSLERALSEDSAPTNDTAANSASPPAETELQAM
Protocol: (§1) CHO-Gα16 cells stably expressing FPR1 or FPR2 were cultured in (Ham's F12 nutrient media, 10% fetal bovine serum, 1% PSA (penicillin, streptomycin, amphotericin B antiobiotic/antimycotic), 400 μg/ml geneticin and 50 μg/ml hygromycin). In general, the day before the experiment, 18,000 cells/well were plated in a 384-well clear bottom poly-D-lysine coated plate. The following day the screening compound-induced calcium activity was assayed on the FLIPR^Tetra. The drug plates were prepared in 384-well microplates using the EP3 and the MultiPROBE robotic liquid handling systems. Compounds were tested at concentrations ranging from 0.61 to 10,000 nM. Results are expressed as EC50 (nM) and efficacy values.

FPR1 = biological target: T2, FPR1 (Homo sapiens, UniProt P21462); experiment: compound-induced calcium activity on FLIPR Tetra, CHO-Gα16 cells stably expressing FPR1; format: cell-based; conditions: for FPR1 Ga16-CHO (% eff): efficacy value in parentheses; for FPR1 Ga16-CHO (% eff) / EC50: CHO-Gα16 cells stably expressing FPR1, calcium activity; for Ratio FPR2:FPR1 (EC50): ratio of EC50 for agonizing FPR2 to EC50 for agonizing FPR1 (selectivity for FPR1); for EC50: tested at 0.61 to 10,000 nM, read-out: FPR1 Ga16-CHO EC50
T2 construct: expressed in transfected cells
T2 sequence (P21462 1-350): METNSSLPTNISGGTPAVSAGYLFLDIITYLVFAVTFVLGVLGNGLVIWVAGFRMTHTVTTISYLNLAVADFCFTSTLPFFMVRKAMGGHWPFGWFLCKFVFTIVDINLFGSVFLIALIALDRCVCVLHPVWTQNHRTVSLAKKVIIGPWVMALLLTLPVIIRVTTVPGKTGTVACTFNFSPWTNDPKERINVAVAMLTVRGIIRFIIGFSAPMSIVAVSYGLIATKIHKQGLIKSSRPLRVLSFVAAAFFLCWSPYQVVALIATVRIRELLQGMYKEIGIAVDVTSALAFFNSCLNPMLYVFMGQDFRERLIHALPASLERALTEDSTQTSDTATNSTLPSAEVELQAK
Protocol: as §1

| Compound | FPR2 Ga16-CHO (% eff) (FPR2) | FPR1 Ga16-CHO (% eff) (FPR1) | Ratio FPR2:FPR1 (EC50) (FPR1) | EC50 (FPR2) | EC50 (FPR1) |
| --- | --- | --- | --- | --- | --- |
| CC(C)CC(C(=O)O)C(C)NC(=O)Nc1ccc(Br)cc1 (racemic) [Compound 102, 2-(1-(3-(4-bromophenyl)ureido)ethyl)-4-methylpentanoic acid] | 0.63 | 92% | 22 |  |  |
| CC(C)CC(C(=O)O)C(C)NC(=O)Nc1ccc(Br)cc1 (racemic) [Compound 103, 2-(1-(3-(4-bromophenyl)ureido)ethyl)-4-methylpentanoic acid] | 1.04 | 97% | 79 |  |  |
| CC(C)CC(C(=O)OC(C)(C)C)C(C)NC(=O)Nc1ccc(Br)cc1 (single isomer, unassigned) [Compound 100, tert-butyl 2-(1-(3-(4-bromophenyl)ureido)ethyl)-4-methylpentanoate] | 0.75 | 80% | 2.6 | 3760 nM | 1420 nM |
| CC(C)CC(C(=O)OC(C)(C)C)C(C)NC(=O)Nc1ccc(Br)cc1 (single isomer, unassigned) [Compound 101, tert-butyl 2-(1-(3-(4-bromophenyl)ureido)ethyl)-4-methylpentanoate] | 0.73 | 66% | 1 | ≥ 10000 nM | ≥ 10000 nM |
| CC(C)CC(C(=O)O)C(C)NC(=O)Nc1ccc(Br)cc1 (single isomer, unassigned) [Compound 102, 2-(1-(3-(4-bromophenyl)ureido)ethyl)-4-methylpentanoic acid] |  |  |  | 1050 nM | 48 nM |

Now from value to molecule:

| FPR2 Ga16-CHO (% eff) (FPR2) | FPR1 Ga16-CHO (% eff) (FPR1) | Ratio FPR2:FPR1 (EC50) (FPR1) | EC50 (FPR2) | EC50 (FPR1) | Compound |
| --- | --- | --- | --- | --- | --- |
|  |  |  | 41 nM | 0.52 nM | CC(C)CC(C(=O)O)C(C)NC(=O)Nc1ccc(Br)cc1 (single isomer, unassigned) [Compound 103, 2-(1-(3-(4-bromophenyl)ureido)ethyl)-4-methylpentanoic acid] |
| 0.89 | 94% | 17 | 855 nM | 51 nM | CC(C)CC(C(=O)O)C(C)NC(=O)Nc1ccc(Br)cc1 (single isomer, unassigned) [Compound 104, 2-(1-(3-(4-bromophenyl)ureido)ethyl)-4-methylpentanoic acid] |
| 0.56 | 103% | 249 | 3240 nM | 13 nM | CC(C)CC(C(=O)O)C(C)NC(=O)Nc1ccc(Br)cc1 (single isomer, unassigned) [Compound 105, 2-(1-(3-(4-bromophenyl)ureido)ethyl)-4-methylpentanoic acid] |
| 0.75 | 91% | 101 | 9940 nM | 98 nM | CC(C)CC(C(=O)O)C(C)NC(=O)Nc1ccc(Br)cc1 (single isomer, unassigned) [Compound 106, 2-(1-(3-(4-bromophenyl)ureido)ethyl)-4-methylpentanoic acid] |
| 0.96 | 93% | 15 | 25 nM | 1.7 nM | CC(C)CC(C(=O)O)C(C)NC(=O)Nc1ccc(Br)cc1 (single isomer, unassigned) [Compound 107, 2-(1-(3-(4-bromophenyl)ureido)ethyl)-4-methylpentanoic acid] |
